The IC50 is the concentration needed to halve the response being measured. Read a high IC50 as lower potency.

The source of these data is ChEMBL document CHEMBL2390863, “Synthesis and evaluation of 4-substituted coumarins as novel acetylcholinesterase inhibitors” (Eur J Med Chem, 2013).

The nature of test [1]: Antioxidant activity assessed as Fe2+ formation by FRAP assay. The format is functional.
Test [2] addresses Cholinesterase (Equus caballus, UniProt P81908). Put plainly: Inhibition of equine serum BChE using butylthiocholine iodide as substrate preincubated for 10 mins prior to substrate addition by Ellman's method.
Test [3] addresses Acetylcholinesterase (Electrophorus electricus, UniProt O42275). Put plainly: Inhibition of electric eel AChE using acetylthiocholine iodide as substrate preincubated for 10 mins prior to substrate addition by Ellman's method. Background: In Ellman's method for cholinesterases, released thiocholine reacts with DTNB.
A short description of test [4]: Selectivity ratio of IC50 for equine serum BChE to IC50 for electric eel AChE.

Sequence of Acetylcholinesterase (O42275 whole entry): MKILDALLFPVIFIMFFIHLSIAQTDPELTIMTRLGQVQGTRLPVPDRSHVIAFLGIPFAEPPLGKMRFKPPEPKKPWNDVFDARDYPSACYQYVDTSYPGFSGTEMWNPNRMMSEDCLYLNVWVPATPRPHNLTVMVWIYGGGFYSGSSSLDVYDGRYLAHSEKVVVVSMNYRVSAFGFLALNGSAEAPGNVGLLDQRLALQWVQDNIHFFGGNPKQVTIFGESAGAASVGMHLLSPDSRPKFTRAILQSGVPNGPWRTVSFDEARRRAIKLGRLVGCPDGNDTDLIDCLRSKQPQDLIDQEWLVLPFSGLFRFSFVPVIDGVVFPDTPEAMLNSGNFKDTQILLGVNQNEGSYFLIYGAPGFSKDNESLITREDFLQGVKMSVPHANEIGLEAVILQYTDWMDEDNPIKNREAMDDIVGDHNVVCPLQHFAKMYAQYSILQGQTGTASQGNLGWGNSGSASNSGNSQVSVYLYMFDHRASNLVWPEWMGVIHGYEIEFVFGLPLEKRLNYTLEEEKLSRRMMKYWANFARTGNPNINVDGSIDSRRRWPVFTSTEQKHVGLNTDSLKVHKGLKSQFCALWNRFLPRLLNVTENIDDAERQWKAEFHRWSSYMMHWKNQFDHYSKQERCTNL
Sequence of Cholinesterase (P81908 whole entry): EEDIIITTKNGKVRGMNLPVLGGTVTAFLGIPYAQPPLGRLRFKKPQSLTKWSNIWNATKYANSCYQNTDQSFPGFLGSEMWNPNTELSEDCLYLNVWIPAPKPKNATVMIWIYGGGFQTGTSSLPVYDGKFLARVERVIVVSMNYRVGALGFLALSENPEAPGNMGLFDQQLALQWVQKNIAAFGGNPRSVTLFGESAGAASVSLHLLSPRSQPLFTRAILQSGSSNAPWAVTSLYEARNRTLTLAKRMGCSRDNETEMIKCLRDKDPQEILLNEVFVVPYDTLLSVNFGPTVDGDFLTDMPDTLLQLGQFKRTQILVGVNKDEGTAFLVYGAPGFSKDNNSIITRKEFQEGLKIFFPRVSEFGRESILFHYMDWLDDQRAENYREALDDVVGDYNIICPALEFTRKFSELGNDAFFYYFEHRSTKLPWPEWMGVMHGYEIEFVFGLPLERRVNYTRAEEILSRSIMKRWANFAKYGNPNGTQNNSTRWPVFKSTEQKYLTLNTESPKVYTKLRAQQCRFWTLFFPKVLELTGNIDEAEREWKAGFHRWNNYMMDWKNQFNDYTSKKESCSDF

Take `O=C1O[C@H]([C@@H](O)CO)C(O)=C1O`: the Activity in test [1] came to 2250 mmol/g.

As to `O=C(CCCOc1cc(=O)oc2ccccc12)N1CCN(c2ccc(Cl)c(Cl)c2)CC1`, the IC50 in test [2] and in test [3] was more than 100 µM each time.

With `O=C(CCCOc1cc(=O)oc2ccccc12)N1CCN(c2ccccc2O)CC1`, the Activity in test [1] was determined as 770 mmol/g. For the same molecule, the IC50 in test [2] and in test [3] was more than 100 µM in each case.

For `O=C(COc1cc(=O)oc2ccccc12)N1CCN(c2ccccc2)CC1`, the Ratio IC50 in test [4] stood at 34. Besides, the IC50 in test [2] was more than 100 µM; in test [3] it was 2.9 µM.

Consider `O=C(CCCOc1cc(=O)oc2ccccc12)N1CCC(O)(c2ccc(Br)cc2)CC1`, for which the IC50 in test [2] and in test [3] was more than 100 µM throughout.

With `O=C(COc1cc(=O)oc2ccccc12)N1CCN(c2ccc(F)cc2)CC1`, the Ratio IC50 in test [4] stood at 34. The IC50 was found to be 76 µM in test [2] and 2.1 µM in test [3].

Turning to `O=C(CCCOc1cc(=O)oc2ccccc12)N1CCN(c2ccc(F)cc2)CC1`, the IC50 in test [2] and in test [3] was more than 100 µM throughout.

Consider `O=C(CCCOc1cc(=O)oc2ccccc12)N1CCC(Cc2ccccc2)CC1`, for which the figures for the IC50 in test [2] and in test [3] were 76 µM and 8 µM, respectively.

For the molecule `O=C(COc1cc(=O)oc2ccccc12)N1CCN(c2ccccc2F)CC1`, the half-maximal inhibitory concentration (IC50) in test [2] was more than 100 µM; in test [3], 12.1 µM.

Turning to `O=C(CCCOc1cc(=O)oc2ccccc12)N1CCC(O)(c2ccc(Cl)cc2)CC1`, the IC50 in test [2] and in test [3] was more than 100 µM throughout.

As to `O=C(COc1cc(=O)oc2ccccc12)NC1CCN(Cc2ccccc2)CC1`, in test [4], the Ratio IC50 was 37. In addition, the figures for the IC50 in test [2] and in test [3] were 45 µM and 1.2 µM, respectively.

As to `O=C(COc1cc(=O)oc2ccccc12)N1CCC(O)(c2ccc(Cl)cc2)CC1`, the IC50 in test [2] and in test [3] was more than 100 µM each time.

Regarding `O=C(CCCOc1cc(=O)oc2ccccc12)NC1CCN(Cc2ccccc2)CC1`, the IC50 in test [2] came out at 41 µM; in test [3], 2.37 µM.

As for `O=C(COc1cc(=O)oc2ccccc12)N1CCN(c2ccc(Cl)c(Cl)c2)CC1`, the Ratio IC50 in test [4] is 34. The IC50 is 89 µM in test [2] and 2.3 µM in test [3].

Regarding `COc1ccc(CCNC(=O)CCCOc2cc(=O)oc3ccccc23)cc1OC`, the IC50 in test [2] and in test [3] was more than 100 µM in each case.

In the case of `O=C(CCCOc1cc(=O)oc2ccccc12)N1CCN(c2ccccc2F)CC1`, the IC50 in test [2] and in test [3] was more than 100 µM each time.

Regarding `O=C(COc1cc(=O)oc2ccccc12)N1CCC(Cc2ccccc2)CC1`, the IC50 is 65 µM in test [2] and 3.4 µM in test [3].

In the case of `O=C(CCCOc1cc(=O)oc2ccccc12)N1CCN(c2ccccc2)CC1`, the IC50 in test [2] and in test [3] was more than 100 µM throughout.

Turning to `O=C(COc1cc(=O)oc2ccccc12)N1CCC(O)(c2ccc(Br)cc2)CC1`, the IC50 in test [2] and in test [3] was more than 100 µM each time.

Take `O=C(COc1cc(=O)oc2ccccc12)N1CCN(c2ccccc2O)CC1`: the Activity in test [1] was 840 mmol/g. Besides, the half-maximal inhibitory concentration (IC50) in test [2] is more than 100 µM; in test [3] it was 21.2 µM.
